The text below walks through data of patent publication US20160158189A1, “SENSITIZATION OF CANCER CELLS TO APOPTOSIS INDUCTION BY FLAVAGLINES AND 5-HYDROXY-FLAVONES” (DEUTSCHES KREBSFORSCHUNGSZENTRUM, priority 2013, published 2016).

Data set [1] concerns cervix adenocarcinoma cell line HeLa. In words: Apoptotic cell death by DNA fragmentation, HeLa. It counts as cell-based, human. To be noted: 1 μM ABT-263, 48 h. How it is done: (§1) The human malignant cell lines used in this study are the T cell leukemic cell lines CEM, Molt-4 and Jurkat (J16), the HL cell line KM-H2, the cervix adenocarcinoma cell line HeLa, the melanoma cell line A375, the hepatocellular carcinoma cell line HepG2, the pancreatic carcinoma cell line MiaPaca, the breast cancer cell line MCF-7, the prostatic cancer cell line PC3 and the colon carcinoma cell line HCT116. All cells were cultured in RPMI 1640 or DMEM medium (GIBCO laboratories, Grand Island, USA), supplemented with 10% FCS, 100 Units/ml penicillin (GIBCO), 100 μg/m1 streptomycin (GIBCO) and 2 mM L-glutamine (GIBCO) at 37° C. and 5%. Wogonin (BIOTREND Chemicals AG, Wangen, Switzerland), apigenin, chrysin, luteolin and baicalein (Sigma, St. Louis, USA) were solved in dimethyl sulfoxide (DMSO; Roth, Karlsruhe, Germany) at a stock concentration of 50 mM. Cells were treated with different concentrations of different flavones or ABT-263 (Selleck Chemicals, Houston, USA) for 24 to 48 h. Apoptotic cell death was examined by analysis of DNA fragmentation as previously described 23 (Fas et al.,2006, Blood 108: 3700-6). Results are presented as % specific DNA fragmentation using the formula: (percentage of experimental apoptosis-percentage of spontaneous apoptosis)/(100-percentage of spontaneous apoptosis)×100.

For a further data set, the system named is melanoma cell line A375. Briefly: Apoptotic cell death by DNA fragmentation, A375. It counts as cell-based, human. To be noted: 1 μM ABT-263, 48 h. How it is done:
as §1

Data set [2] deals with ABT-263-resistant Jurkat (Jurkat-R). Briefly: Apoptotic cell death by DNA fragmentation, ABT-263-resistant Jurkat. It counts as cell-based, human. The conditions noted are these: Jurkat treated with increasing ABT-263 up to 10 μM, 3 months. On the procedure: (§2) Wogonin (BIOTREND Chemicals AG, Wangen, Switzerland), apigenin, chrysin, luteolin and baicalein (Sigma, St. Louis, USA) were solved in dimethyl sulfoxide (DMSO; Roth, Karlsruhe, Germany) at a stock concentration of 50 mM. Cells were treated with different concentrations of different flavones or ABT-263 (Selleck Chemicals, Houston, USA) for 24 to 48 h. Apoptotic cell death was examined by analysis of DNA fragmentation as previously described 23 (Fas et al.,2006, Blood 108: 3700-6). Results are presented as % specific DNA fragmentation using the formula: (percentage of experimental apoptosis-percentage of spontaneous apoptosis)/(100-percentage of spontaneous apoptosis)×100.

The subject of data set [3] is ABT-263-resistant CEM (CEM-R). In words: Apoptotic cell death by DNA fragmentation, ABT-263-resistant CEM. Format: cell-based, human. To be noted: CEM treated with increasing ABT-263 up to 1 μM, 2 months. On the procedure:
as §2

The test system of data set [4] is pancreatic carcinoma cell line MiaPaca. In words: Apoptotic cell death by DNA fragmentation, MiaPaca. The conditions noted are these: 1 μM ABT-263, 48 h. It counts as cell-based, human. How it is done: as §1
The test system of another data set is Colo-357 cells. In words: Apoptotic cell death by DNA fragmentation, Colo-357. Format: cell-based. To be noted: 1 μM ABT-263, 48 h. How it is done: as §2
The subject of data set [5] is colon carcinoma cell line HCT116. Briefly: Apoptotic cell death by DNA fragmentation, HCT116. It counts as cell-based, human. The conditions noted are these: 1 μM ABT-263, 48 h. How it is done: as §1
Data set [6] has as its system prostatic cancer cell line PC3. In words: Apoptotic cell death by DNA fragmentation, PC3. Format: cell-based, human. To be noted: 1 μM ABT-263, 48 h. On the procedure:
as §1

Data set [7] relates to Hodgkin lymphoma (HL) cell line KM-H2. In words: Apoptotic cell death by DNA fragmentation, KM-H2. To be noted: 1 μM ABT-263, 48 h. It counts as cell-based, human. How it is done:
as §1

In data set [8] the test system is breast cancer cell line MCF-7. In words: Apoptotic cell death by DNA fragmentation, MCF-7. Format: cell-based, human. The conditions noted are these: 1 μM ABT-263, 48 h. How it is done:
as §1

In data set [9] the test system is proliferating normal peripheral blood T cells. In words: Apoptotic cell death by DNA fragmentation, proliferating normal T cells. Format: cell-based. To be noted: human. On the procedure: Normal T cells were isolated from peripheral blood of healthy donors and activated to proliferate as described in the Materials and Methods. The proliferating T cells were treated with different concentrations of ABT-263 in the absence or presence of wogonin as indicated. Apoptotic cell death was determined by DNA fragmentation. Results are presented as pooled data from four independent donors. (B) Proliferating normal T cells express higher levels of Mcl-1 and Bcl-2 than leukemic Jurkat and Molt-4 T cells. Total cell lysates of activated T cells from three healthy donors were compared with leukemic cells for the expression levels of Mcl-1, Bcl-2, Bcl-xL and Bcl-w. CDK6 is known to be over-expressed in many tumor cells and was used as a marker for malignant cells. Representative blots from two independent experiments are shown. […] Human platelets in 10% FCS were treated with different concentrations of ABT-263 in the absence or presence of wogonin as indicated. After 1 h treatment, apoptotic cell death was determine by staining with annexin V/FITC. Results are average of two independent assays.
Human peripheral blood T cells were prepared as described previously 23 and were more than 90% CD3 positive. For generation of proliferating T cells, freshly isolated T cells were cultured at 2×10^6 cells/ml and were activated with […] PHA overnight. Activated T cells were then washed three times and cultured for additional 5 days in the presence of 25 U/ml IL-2. Platelets were prepared as described in Vogler et al., 2011, Blood 117: 7145-54.
Wogonin (BIOTREND Chemicals AG, Wangen, Switzerland), apigenin, chrysin, luteolin and baicalein (Sigma, St. Louis, USA) were solved in dimethyl sulfoxide (DMSO; Roth, Karlsruhe, Germany) at a stock concentration of 50 mM. Cells were treated with different concentrations of different flavones or ABT-263 (Selleck Chemicals, Houston, USA) for 24 to 48 h. Apoptotic cell death was examined by analysis of DNA fragmentation as previously described 23 (Fas et al.,2006, Blood 108: 3700-6). […]

In another data set the test system is Mcl-1. In words: Western blot analysis of Mcl-1 expression. Format: cell-based, human. To be noted: Jurkat and CEM with acquired ABT-263 resistance. An excerpt:
(§3) For each sample, 1×10^7 cells were lysed as previously described. 23 Equal amounts of protein were separated on 5-13% SDS-PAGE depending on the molecular sizes of the proteins and blotted onto a nitrocellulose membrane (Amersham Biosciences, Little Chalfon, UK) as previously described. 23 The following antibodies were used: Bad, Bax, Bcl-xL, Bcl-w, XIAP from Cell Signaling Technology, Danvers, USA; Bcl-2 (sc-509) and Mcl-1 (sc-819) from Santa Cruz Biotechnology, Heidelberg, Germany; Tubulin and actin from Sigma, Saint Louis, USA.
In general terms: Immunoblotting shows a protein as a band on a membrane.

The test system of another data set is human ALL RS4;11. The conditions noted are these: 100 mg/kg/day; cited from earlier work.
A further data set relates to CEM tumors. Briefly: CEM xenograft in immunodeficient mice. It counts as in vivo. The conditions noted are these: Rag2-/-/Il2rg-/- mice, s.c. CEM; ABT-263 50 mg/kg p.o. and/or wogonin 50 mg/kg i.p. On the procedure: Immunodeficient mice (Rag2−/−/II2rg−/−) were implanted subcutaneously in the dorsal flank region with CEM (5×10^7 cells). After the tumors reached to approximate 35 mm3, tumor size matched mice were treated with ABT-263 (50 mg/kg, once in each third or fourth day) in the presence or absence of 50 mg/kg wogonin. ABT-263 was formulated according to the protocol previously described 9 and administered p.o. Wogonin dissolved in DMSO was diluted in sunflower oil and administered i.p. For combination studies, ABT-263 was given 2 h before wogonin. The control group was treated in an analogous manner with the vehicle. The tumor size was measured with a micrometer caliper two to three times weekly and the tumor volume (V) was calculated by the formula V=(width2×length)/2. All protocols using and maintaining animals were approved by the German Animal Protection Authority (Office Regierungsprasidium Karlsruhe) in Karlsruhe.

In data set [10] the test system is hepatocellular carcinoma cell line HepG2. Briefly: Apoptotic cell death by DNA fragmentation, HepG2. To be noted: HepG3 (so in the source); 1 μM ABT-263, 48 h. Format: cell-based, human. On the procedure: as §1
Data set [11] deals with caspase-8, caspase-3, PARP. Briefly: Western blot of caspases and PARP. Format: cell-based, human. The conditions noted are these: Jurkat (J16); combination with ABT-263, 24 h.
Source text: as §3
(§4) To investigate whether rocaglamide could enhance the toxicity of ABT-263 on leukemic cells, leukemic T cell line Jurkat and the HTLV-1-associated ATL cell line MT-2 were treated with indicated amounts of ABT-263 in the absence or presence of different concentration of rocaglamide for 48 h. Apoptotic cell death was determined by DNA fragmentation.

The subject of another data set is Jurkat (J16) cells. Briefly: Apoptotic cell death by DNA fragmentation, Jurkat. It counts as cell-based, human. The conditions noted are these: Jurkat; ABT-263 with different concentrations of rocaglamide, 48 h. On the procedure: as §1
In data set [12] the test system is HTLV-1-associated ATL cell line MT-2. Briefly: Apoptotic cell death by DNA fragmentation, MT-2. It counts as cell-based, human. The conditions noted are these: ABT-263 with different concentrations of rocaglamide, 48 h. On the procedure: as §2, §4

`CC1(C)CCC(c2ccc(Cl)cc2)=C(CN2CCN(c3ccc(C(=O)NS(=O)(=O)c4ccc(N[C@H](CCN5CCOCC5)CSc5ccccc5)c(S(=O)(=O)C(F)(F)F)c4)cc3)CC2)C1` [ABT-263, (R)-4-(4-((4′-chloro-4,4-dimethyl-3,4,5,6-tetrahydro-[1,1′-biphenyl]-2-yl)methyl)piperazin-1-yl)--N-((4-((4-morpholino-1-(phenylthio)butan-2-yl)amino)-3-((trifluoromethyl)sulfonyl)phenyl)sulfonyl)benzamide]: the cell death result is “less than 5%” in data set [1]; 10-20% with melanoma cell line A375; “less than 5%” in [4]; “less than 5%” in the data set on Colo-357 cells; 10-20% in data set [5]; “less than 5%” in data set [6]. Further, the cell death entry is given as “less than 5%” in data set [7], “less than 5%” in data set [8] and 10-20% in data set [10]. The “sensitivity to ABT-263 after long-term exposure” value in data set [2] and in data set [3] was “resistant to ABT-263” each time. Also, the “sensitivity of proliferating normal T cells to ABT-263” value in [9] is given as “higher resistance to ABT-263 compared to leukemic cells”. In the data set with Mcl-1, the “Mcl-1 expression after long-term ABT-263 exposure” value was “elevated Mcl-1 expression”. The tumor response entry in the data set on human ALL RS4;11 was “complete tumor response rate”. Also, the “tumor growth / tumor response” value with CEM tumors is recorded as “no significant inhibition of tumor growth”.

Take `COc1ccc([C@@]23Oc4cc(OC)cc(OC)c4[C@]2(O)[C@H](O)[C@H](C(=O)N(C)C)[C@H]3c2ccccc2)cc1` [rocaglamide, (1R,2R,3S,3aR,8bS)-1,8b-dihydroxy-6,8-dimethoxy-3a-(4-methoxyphenyl)—N,N-dimethyl-3-phenyl-2,3-dihydro-1H-cyclopenta[b][1]benzofuran-2-carboxamide]: the “activities of caspase-8, caspase-3 and PARP cleavage” value in [11] was “Significant enhancement of activities of caspase-8, caspase-3 and increase in PARP cleavage”. Moreover, the “sensitization of ABT-263-induced apoptosis” value (in the data set on Jurkat (J16) cells; in data set [12]) was “sensitized by rocaglamide in both leukemic cell lines in a dose-dependent manner” in each case.
